Experimental findings from patent US10689400B2, “Macrocycle kinase inhibitors” (Turning Point Therapeutics, Inc., priority 2016, dated 2020) are described below.

Assay [1] relates to KM12 cells (harboring endogenous TPM3-TRKA fusion gene). Description: KM12 cell proliferation assay (CellTiter-Glo, 72 hours). It counts as cell-based. Particulars: Homo sapiens, KM12 colorectal cell line, 72 hours incubation. How it is done: (§1) Colorectal cell lines KM 12 (harboring endogenous TPM3-TRKA fusion gene) cells were cultured in DMEM medium, supplemented with 10% fetal bovine serum and 100 U/mL of penicillin/streptomycin. 5000 cells were seeded in 384 well white plate for 24 hours before compounds treatment. Cell proliferation was measured using CellTiter-Glo luciferase-based ATP detection assay (Promega) following the manufactures's protocol after 72 hours incubation. IC50 determinations were performed using GraphPad Prism software (GraphPad, Inc., San Diego, Calif.).
as §1, with “Alternatively: Colorectal” for “Colorectal”, “line KM12” for “lines KM 12”, “DMEM medium, supplemented with 10% fetal bovine serum and 100 U/mL of penicillin/streptomycin. Essential thrombocythemia cell line SET-2 cells (harboring endogenous JAK2 V618F point mutation) were cultured in RPMI” for “DMEM”

The test system of assay [2] is SET-2 cells (harboring endogenous JAK2 V618F point mutation). Description: SET-2 cell proliferation assay (CellTiter-Glo, 72 hours). In kind it is cell-based. Conditions: Homo sapiens, SET-2 essential thrombocythemia cell line, 72 hours incubation, read-out: Cell Proliferation JAK2 SET2 Cell IC50. How it is done: as §1, with “Alternatively: Colorectal” for “Colorectal”, “line KM12” for “lines KM 12”, “DMEM medium, supplemented with 10% fetal bovine serum and 100 U/mL of penicillin/streptomycin. Essential thrombocythemia cell line SET-2 cells (harboring endogenous JAK2 V618F point mutation) were cultured in RPMI” for “DMEM”
A general note: Cellular ATP, detected with luciferase, serves as a proxy for viable cell number.

A further assay concerns the target T1, BTK kinase (Homo sapiens, UniProt Q06187).
T1 construct: purchased Eurofins (KinaseProfiler) / Reaction Biology Corporation
The assay can be described thus: BTK biochemical kinase assay (radiometric; Eurofins KinaseProfiler / Reaction Biology). Particulars: ATP 10 μM. Here is the method:
The Compounds were tested against BTK kinase using the Eurofins standard KinaseProfiler™ assays and following the relevant standard operating procedures. Protein kinases were assayed in a radiometric format. Full details of the assay for each kinase are available on the Eurofins website, or in the accompanying protocol document. All compounds were prepared to a working stock of 50× final assay concentration in 100% DMSO. Where appropriate, more concentrated stocks were diluted manually to 50× using 100% DMSO. Compounds supplied as powders were reconstituted to a 10 mM stock in 100% DMSO before further dilution to 50×. The required volume of the 50× stock of test compound was added to the assay well, before a reaction mix containing the enzyme and substrate was added. The reaction was initiated by the addition of ATP at the selected 10 μM concentration. There was no pre-incubation of the compound with the enzyme/substrate mix prior to ATP addition. For IC50 determinations, data are analysed using XLFit version 5.3 (ID Business Solutions). Sigmoidal dose-response (variable slope) curves are fit based on the mean result for each test concentration using non-linear regression analysis. Where the top and/or bottom of the curve fall >10% out with 100 and 0, respectively, either or both of these limits may be constrained at 100 and 0, provided that the QC criterion on R^2 is met.
The BTK biochemical kinase assay was also performed at Reaction Biology Corporation (www.reactionbiology.com, Malvern, Pa.) following the procedures described in the reference (Anastassiadis T, et al Nat Biotechnol. 2011, 29, 1039). Specific kinase/substrate pairs along with required cofactors were prepared in reaction buffer; 20 mM Hepes pH 7.5, 10 mM MgCl2, 1 mM EGTA, 0.02% Brij35, 0.02 mg/ml BSA, 0.1 mM Na3VO4, 2 mM DTT, 1% DMSO (for specific details of individual kinase reaction components see Supplementary Table 2). Compounds were delivered into the reaction, followed ˜20 minutes later by addition of a mixture of ATP (Sigma, St. Louis Mo.) and ^33P ATP (Perkin Elmer, Waltham Mass.) to a final concentration of 10 μM. Reactions were carried out at room temperature for 120 min, followed by spotting of the reactions onto P81 ion exchange filter paper (Whatman Inc., Piscataway, N.J.). Unbound phosphate was removed by extensive washing of filters in 0.75% phosphoric acid. […] IC50 values and curve fits were obtained using Prism (GraphPad Software).

Molecules are shown by their SMILES. pIC50: −log10 of the molar value.

T1 sequence (Q06187 whole entry): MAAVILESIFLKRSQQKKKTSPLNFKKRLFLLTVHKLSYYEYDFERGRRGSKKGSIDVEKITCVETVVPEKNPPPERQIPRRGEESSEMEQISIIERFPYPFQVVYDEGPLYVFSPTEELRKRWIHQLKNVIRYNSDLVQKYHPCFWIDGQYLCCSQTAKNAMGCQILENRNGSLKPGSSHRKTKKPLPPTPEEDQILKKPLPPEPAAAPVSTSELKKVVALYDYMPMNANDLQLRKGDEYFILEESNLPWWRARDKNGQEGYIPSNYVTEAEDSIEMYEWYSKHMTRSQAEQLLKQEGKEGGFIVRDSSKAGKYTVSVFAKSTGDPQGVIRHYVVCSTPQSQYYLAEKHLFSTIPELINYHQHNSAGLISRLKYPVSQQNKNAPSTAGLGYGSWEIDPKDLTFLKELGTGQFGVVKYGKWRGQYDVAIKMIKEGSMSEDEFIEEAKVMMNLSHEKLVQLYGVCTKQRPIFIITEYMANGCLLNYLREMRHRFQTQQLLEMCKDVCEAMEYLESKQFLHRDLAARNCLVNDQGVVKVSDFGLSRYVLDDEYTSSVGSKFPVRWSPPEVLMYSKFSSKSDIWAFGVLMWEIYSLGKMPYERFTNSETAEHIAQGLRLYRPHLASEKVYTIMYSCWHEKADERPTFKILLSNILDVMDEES

Take `COc1cc(F)cc2c1OCCNC(=O)c1cnn3ccc(nc13)N[C@@H]2C` [Compound 16, (13R)-11-fluoro-9-methoxy-13-methyl-6,7,13,14-tetrahydro-1,15-ethenopyrazolo[4,3-f][1,4,8,10]benzoxatriazacyclotridecin-4(5H)-one]: the pIC50 was 7.86 in assay [1], 6.52 in assay [2] and 6.35 against BTK kinase.

Regarding `C[C@H]1Nc2ccn3ncc(c3n2)C(=O)NCCOc2c(Cl)cc(F)cc21` [Compound 6, (13R)-9-chloro-11-fluoro-13-methyl-6,7,13,14-tetrahydro-1,15-ethenopyrazolo[4,3-f][1,4,8,10]benzoxatriazacyclotridecin-4(5H)-one], the pIC50 in assay [1] is 8.38; in assay [2], 7.11; against BTK kinase it was 7.19.

As for `CC(C)N1Cc2cc(F)cc(F)c2OCCCNC(=O)c2cnn3ccc1nc23` [Compound 12, 10,12-difluoro-15-(propan-2-yl)-5,6,7,8,14,15-hexahydro-4H-1,16-ethenopyrazolo[4,3-g][1,5,9,11]benzoxatriazacyclotetradecin-4-one], the results for the pIC50 (in assay [1]; in assay [2]; against BTK kinase) were 9.70, 5.30 and 8.01, respectively.

As to `CC(C)Oc1cc(F)cc2c1OCCNC(=O)c1cnn3ccc(nc13)N[C@@H]2C` [Compound 15, (13R)-11-fluoro-13-methyl-9-[(propan-2-yl)oxy]-6,7,13,14-tetrahydro-1,15-ethenopyrazolo[4,3-f][1,4,8,10]benzoxatriazacyclotridecin-4(5H)-one], the results for the pIC50 (in assay [1]; in assay [2]; against BTK kinase) were 8.70, 6.30 and 6.81, respectively.

Regarding `C[C@H]1Nc2ccn3ncc(c3n2)C(=O)NCCOc2c(O)cc(F)cc21` [Compound 17, (13R)-11-fluoro-9-hydroxy-13-methyl-6,7,13,14-tetrahydro-1,15-ethenopyrazolo[4,3-f][1,4,8,10]benzoxatriazacyclotridecin-4(5H)-one], the pIC50 in assay [1] was 7.81; in assay [2] it was 6.22; against BTK kinase, 7.32.

Regarding `C[C@H]1Nc2ccn3ncc(c3n2)C(=O)NCCOc2c(Br)cc(F)cc21` [Compound 5, (13R)-9-bromo-11-fluoro-13-methyl-6,7,13,14-tetrahydro-1,15-ethenopyrazolo[4,3-f][1,4,8,10]benzoxatriazacyclotridecin-4(5H)-one], the pIC50 in assay [1] is 8.30; in assay [2], 6.70; against BTK kinase, 7.22.

With `CC(C)N1Cc2cc(F)cc(Cl)c2OCCNC(=O)c2cnn3ccc1nc23` [Compound 10, 9-chloro-11-fluoro-14-(propan-2-yl)-6,7,13,14-tetrahydro-1,15-ethenopyrazolo[4,3-f][1,4,8,10]benzoxatriazacyclotridecin-4(5H)-one], the pIC50 was 10.00 in assay [1], 5.83 in assay [2] and 6.75 against BTK kinase.

As for `C[C@H]1Nc2ccn3ncc(c3n2)C(=O)NC[C@@H](CO)Oc2ccc(F)c(Cl)c21` [Compound 4, (7S,13R)-12-chloro-11-fluoro-7-(hydroxymethyl)-13-methyl-6,7,13,14-tetrahydro-1,15-ethenopyrazolo[4,3-f][1,4,8,10]benzoxatriazacyclotridecin-4(5H)-one], the pIC50 is 7.34 in assay [1] and 5.52 in assay [2].

In the case of `Cc1nn(C)cc1-c1cc(F)cc2c1O[C@@H](C)CNC(=O)c1cnn3ccc(nc13)N[C@@H]2C` [Compound 20, (7S,13R)-9-(1,3-dimethyl-1H-pyrazol-4-yl)-11-fluoro-7,13-dimethyl-6,7,13,14-tetrahydro-1,15-ethenopyrazolo[4,3-f][1,4,8,10]benzoxatriazacyclotridecin-4(5H)-one], the results for the pIC50 (in assay [1]; against BTK kinase) were 8.19 and 6.62, respectively.

Consider `C[C@H]1CNC(=O)c2cnn3ccc(nc23)N[C@H](C)c2cc(F)cc(Cl)c2O1` [Compound 8, (7S,13R)-9-chloro-11-fluoro-7,13-dimethyl-6,7,13,14-tetrahydro-1,15-ethenopyrazolo[4,3-f][1,4,8,10]benzoxatriazacyclotridecin-4(5H)-one], for which the pIC50 was 9.70 in assay [1], 7.08 in assay [2] and 8.40 at BTK kinase.

For the compound `C[C@H]1CNC(=O)c2cnn3ccc(nc23)N[C@H](C)c2c(ccc(F)c2F)O1` [Compound 11, (7S,13R)-11,12-difluoro-7,13-dimethyl-6,7,13,14-tetrahydro-1,15-ethenopyrazolo[4,3-f][1,4,8,10]benzoxatriazacyclotridecin-4(5H)-one], the pIC50 in assay [1] is 9.70; in assay [2], 8.41; against BTK kinase, 7.85.

For `CC(C)N1Cc2c(ccc(F)c2Cl)OCCNC(=O)c2cnn3ccc1nc23` [Compound 13, 12-chloro-11-fluoro-14-(propan-2-yl)-6,7,13,14-tetrahydro-1,15-ethenopyrazolo[4,3-f][1,4,8,10]benzoxatriazacyclotridecin-4(5H)-one], the pIC50 in assay [1] was 6.52; in assay [2], 5.00; on BTK kinase it was 8.26.

For `C[C@H]1Nc2ccn3ncc(c3n2)C(=O)NC[C@@H](CO)Oc2c(F)cc(F)cc21` [Compound 3, (7S,13R)-9,11-difluoro-7-(hydroxymethyl)-13-methyl-6,7,13,14-tetrahydro-1,15-ethenopyrazolo[4,3-f][1,4,8,10]benzoxatriazacyclotridecin-4(5H)-one], the pIC50 was 7.67 in assay [1] and 7.81 in assay [2].

With `C[C@H]1Nc2ccn3ncc(c3n2)C(=O)NCCOc2c(-c3cnn(C)c3)cc(F)cc21` [Compound 19, (13R)-11-fluoro-13-methyl-9-(1-methyl-1H-pyrazol-4-yl)-6,7,13,14-tetrahydro-1,15-ethenopyrazolo[4,3-f][1,4,8,10]benzoxatriazacyclotridecin-4(5H)-one], the pIC50 in assay [1] is 7.27; in assay [2], 6.00; on BTK kinase, 6.32.

Regarding `CC(C)N1Cc2cc(F)cc(F)c2OCCNC(=O)c2cnn3ccc1nc23` [Compound 9, 9,11-difluoro-14-(propan-2-yl)-6,7,13,14-tetrahydro-1,15-ethenopyrazolo[4,3-f][1,4,8,10]benzoxatriazacyclotridecin-4(5H)-one], the pIC50 in assay [1] is 8.28; in assay [2], 6.88; against BTK kinase it was 7.65.

Consider `C[C@H]1CNC(=O)c2cnn3ccc(nc23)N[C@H](C)c2cc(F)cc(Br)c2O1` [Compound 7, (7S,13R)-9-bromo-11-fluoro-7,13-dimethyl-6,7,13,14-tetrahydro-1,15-ethenopyrazolo[4,3-f][1,4,8,10]benzoxatriazacyclotridecin-4(5H)-one], for which the values for the pIC50 in assay [1] and in assay [2] were 9.70 and 8.17, respectively.

In the case of `CC(C)N1Cc2c(ccc(F)c2Cl)O[C@@H](C)CNC(=O)c2cnn3ccc1nc23` [Compound 14, (7S)-12-chloro-11-fluoro-7-methyl-14-(propan-2-yl)-6,7,13,14-tetrahydro-1,15-ethenopyrazolo[4,3-f][1,4,8,10]benzoxatriazacyclotridecin-4(5H)-one], the pIC50 in assay [1] was 9.70; in assay [2] it was 5.82; on BTK kinase, 9.27.

For `C[C@H]1CNC(=O)c2cnn3ccc(nc23)N[C@H](C)c2cc(F)cc(-c3cnn(C)c3)c2O1` [Compound 18, (7S,13R)-11-fluoro-7,13-dimethyl-9-(1-methyl-1H-pyrazol-4-yl)-6,7,13,14-tetrahydro-1,15-ethenopyrazolo[4,3-f][1,4,8,10]benzoxatriazacyclotridecin-4(5H)-one], the pIC50 in assay [1] is 7.63; in assay [2], 6.22; against BTK kinase, 7.22.
